Results from patent US8324390B2, “Tetrazole-substituted anthranilamides as pesticides” (Bayer CropScience AG, priority 2008, dated 2012).
Read-outs that look alike come from different tables or passages of the source.

Assays:
[1] = system: Lucilia cuprina larvae; experiment: Lucilia cuprina test (LUCICU); assay type: in vivo; conditions: read-out: kill in % (larvae killed)
Description: (§1) Solvent: dimethyl sulphoxide
Vessels containing horse meat treated with the active compound preparation of the desired concentration are populated with Lucilia cuprina larvae.
(§2) After the desired period of time, the kill in % is determined.

[2] = log P determination by HPLC (EEC Directive 79/831 Annex V.A8); assay type: physicochemical
Description: The measurements were carried out using an Agilent 1100 LC system with a 50*4.6 Zorbax Eclipse C18 1.8 μm column (oven temperature 55° C., flow rate 2.0 ml/min).
The following mobile phases were used:
Mobile phase A: acetonitrile+1000 μl of formic acid/l
Mobile phase B: Millipore water+900 μl of formic acid/l

[3] = system: caterpillars of the armyworm (Spodoptera frugiperda); experiment: Spodoptera frugiperda test (SPODFR spray treatment); assay type: in vivo; conditions: Spodoptera frugiperda, foliar, read-out: effect in % (caterpillars killed)
From the text: (§3) Solvent: 78.0 parts by weight of acetone

[4] = system: Boophilus microplus; experiment: Boophilus microplus test (BOOPMI injection); assay type: in vivo; conditions: Rhipicephalus microplus, read-out: effect in % (no fertile eggs laid)
Description: as §1
The solution of active compound is injected into the abdomen (Boophilus microplus), and the animals are transferred into dishes and kept in a climatised room. The activity is assessed by […] of fertile eggs.
100% means that none of the ticks has laid any fertile eggs.

[5] = system: larvae of the mustard beetle (Phaedon cochleariae); experiment: Phaedon test (PHAECO spray treatment); conditions: Phaedon cochleariae, in Brassica rapa, foliar, read-out: effect in % (beetle larvae killed)
[6] = system: adult Musca domestica; experiment: Musca domestica test (MUSCDO); assay type: in vivo; conditions: treated sponge, read-out: kill in % (flies killed)
Description: as §1
Vessels containing a sponge treated with the active compound preparation of the desired concentration are populated with adult Musca domestica.
as §2

[7] = system: green peach aphid (Myzus persicae); experiment: Myzus test (MYZUPE spray treatment); assay type: in vivo; conditions: Myzus persicae, foliar, read-out: effect in % (aphids killed)
From the text: Solvent: 78 parts by weight of acetone
as §3

[8] = 20 μg/animal, injection into the abdomen
[9] = application rate 100 g/ha, maize leaf discs
[10] = reversed-phase HPLC, Zorbax Eclipse C18 column, determined by HPLC according to EEC Directive 79/831 Annex V.A8, read-out: log P
[11] = application rate 100 g/ha, Chinese cabbage leaf discs

## Cc1cc(C#N)cc(C(=O)NC(C)C)c1NC(=O)c1cc(Cn2nnc(C(F)(F)C(F)(F)C(F)(F)F)n2)nn1-c1ncccc1Cl [Example 6]
[1]; in Equus caballus
  pest or weed control at 100 ppm: ≥ 80%
[2]; by HPLC according to EEC Directive 79/831 Annex V.A8, read-out: log P
  chromatographic logP: 3.82
[3]; in Zea mays
  pest or weed control at 100 g/ha: ≥ 80%
[4]
  pest or weed control at 0.02 mg: ≥ 80%
[5]
  pest or weed control at 100 g/ha: ≥ 80%

## Cc1cc(Cl)cc(C(=O)NCC#N)c1NC(=O)c1cc(Cn2nnc(C(F)(F)C(F)(F)F)n2)nn1-c1ncccc1Cl [Example 133]
[6]
  pest or weed control at 100 ppm: ≥ 80%
[2]; log P
  chromatographic logP: 3.32
[3]; in Zea mays
  pest or weed control at 100 g/ha: ≥ 80%
[5]
  pest or weed control at 100 g/ha: ≥ 80%

## Cc1cc(C#N)cc(C(=O)NC(C)(C)C)c1NC(=O)c1cc(Cn2nnc(C(F)(F)C(F)(F)F)n2)nn1-c1ncccc1Cl [Example 136]
[6]
  pest or weed control at 100 ppm: ≥ 80%
[2]; log P
  chromatographic logP: 3.86
[7]; in Brassica rapa
  pest or weed control at 100 g/ha: ≥ 80%
[3]; in Zea mays
  pest or weed control at 100 g/ha: ≥ 80%
[5]
  pest or weed control at 100 g/ha: ≥ 80%

## Cc1cc(C#N)cc(C(N)=O)c1NC(=O)c1cc(Cn2nnc(C(F)(F)C(F)(F)F)n2)nn1-c1ncccc1Cl [Example 137]
[6]
  pest or weed control at 100 ppm: ≥ 80%
[2]; log P
  chromatographic logP: 2.83
[3]; in Zea mays
  pest or weed control at 100 g/ha: ≥ 80%
[5]
  pest or weed control at 100 g/ha: ≥ 80%

## Cc1cc(Br)cc(C(=O)NC(C)C2CC2)c1NC(=O)c1cc(Cn2nnc(C(F)(F)C(F)(F)F)n2)nn1-c1ncccc1Cl (stereo not drawn) [Example 144]
[6]
  pest or weed control at 100 ppm: ≥ 80%
[2]; log P
  chromatographic logP: 4.29
[3]; in Zea mays
  pest or weed control at 100 g/ha: ≥ 80%
[5]
  pest or weed control at 100 g/ha: ≥ 80%

## O=C(NC1CC1)c1cc(Cl)cc(Cl)c1NC(=O)c1cc(Cn2nnc(C(F)(F)C(F)(F)F)n2)nn1-c1ncccc1Cl [Example 151]
[6]
  pest or weed control at 100 ppm: ≥ 80%
[2]; log P
  chromatographic logP: 3.57
[3]; in Zea mays
  pest or weed control at 100 g/ha: ≥ 80%
[5]
  pest or weed control at 100 g/ha: ≥ 80%

## Cc1cc(Cl)cc(C(=O)NC(C)C)c1NC(=O)c1cc(Cn2nnnc2C(F)(F)F)nn1-c1ncccc1Cl [Example 162]
[6]
  pest or weed control at 100 ppm: ≥ 80%
[2]; log P
  chromatographic logP: 3.12
[7]; in Brassica rapa
  pest or weed control at 100 g/ha: ≥ 80%
[3]; in Zea mays
  pest or weed control at 100 g/ha: ≥ 80%
[5]
  pest or weed control at 100 g/ha: ≥ 80%

## CNC(=O)c1cc(C)cc(C)c1NC(=O)c1cc(Cn2nnnc2C(F)(F)F)nn1-c1ncccc1Cl [Example 178]
[6]
  pest or weed control at 100 ppm: ≥ 80%
[2]; log P
  chromatographic logP: 2.48
[7]; in Brassica rapa
  pest or weed control at 100 g/ha: ≥ 80%
[3]; in Zea mays
  pest or weed control at 100 g/ha: ≥ 80%
[5]
  pest or weed control at 100 g/ha: ≥ 80%

## Cc1cc(F)cc(C(=O)NC2CC2)c1NC(=O)c1cc(Cn2nnc(C(F)(F)C(F)(F)F)n2)nn1-c1ncccc1Cl [Example 220]
[1]; in Equus caballus
  pest or weed control at 100 ppm: ≥ 80%
[2]; log P
  chromatographic logP: 3.3
[7]; in Brassica rapa
  pest or weed control at 100 g/ha: ≥ 80%
[3]; in Zea mays
  pest or weed control at 100 g/ha: ≥ 80%
[4]; [8]
  pest or weed control at 0.02 mg: ≥ 80%
[5]
  pest or weed control at 100 g/ha: ≥ 80%

## Cc1cc(Br)cc(C(=O)NC2CC2)c1NC(=O)c1cc(Cn2nnc(C(F)(F)F)n2)nn1-c1ncccc1C(F)(F)F [Example 229]
[1]; 100 ppm, treated horse meat
  pest or weed control at 100 ppm: ≥ 80%
[2]; reversed-phase HPLC, Zorbax Eclipse C18 column, by HPLC according to EEC Directive 79/831 Annex V.A8, read-out: log P
  chromatographic logP: 3.52
[3]; [9]
  pest or weed control at 100 g/ha: ≥ 80%
[4]; [8]
  pest or weed control at 0.02 mg: ≥ 80%
[5]
  pest or weed control at 100 g/ha: ≥ 80%

## Cc1cc(Cl)cc(C(=O)NC2CC2)c1NC(=O)c1cc(Cn2nnnc2C(F)(F)C(F)(F)F)nn1-c1ncccc1Br [Example 515]
[2]; [10]
  chromatographic logP: 3.29
[7]; [11]
  pest or weed control at 100 g/ha: ≥ 80%
[3]; [9]
  pest or weed control at 100 g/ha: ≥ 80%
[5]
  pest or weed control at 100 g/ha: ≥ 80%

## CNC(=O)c1cc(C#N)cc(C)c1NC(=O)c1cc(Cn2nnnc2C(F)(F)C(F)(F)F)nn1-c1ncccc1Br [Example 516]
[2]; [10]
  chromatographic logP: 2.72
[7]; [11]
  pest or weed control at 100 g/ha: ≥ 80%
[3]; [9]
  pest or weed control at 100 g/ha: ≥ 80%
[5]
  pest or weed control at 100 g/ha: ≥ 80%

## Cc1cc(C#N)cc(C(=O)NC(C)(C)C)c1NC(=O)c1cc(Cn2nnnc2C(F)(F)C(F)(F)F)nn1-c1ncccc1Br [Example 518]
[2]; [10]
  chromatographic logP: 3.47
[7]; [11]
  pest or weed control at 100 g/ha: ≥ 80%
[3]; [9]
  pest or weed control at 100 g/ha: ≥ 80%
[5]
  pest or weed control at 100 g/ha: ≥ 80%

## CCNC(=O)c1cc(C#N)cc(C)c1NC(=O)c1cc(Cn2nnnc2C(F)(F)C(F)(F)F)nn1-c1ncccc1Br [Example 519]
[2]; [10]
  chromatographic logP: 2.94
[7]; [11]
  pest or weed control at 100 g/ha: ≥ 80%
[3]; [9]
  pest or weed control at 100 g/ha: ≥ 80%
[5]
  pest or weed control at 100 g/ha: ≥ 80%

## CCNC(=O)c1cc(C#N)cc(C)c1NC(=O)c1cc(C(C)n2nnnc2C(F)(F)F)nn1-c1ncccc1Cl (stereo not drawn) [Example 521]
[2]; log P
  chromatographic logP: 2.74
[7]; in Brassica rapa
  pest or weed control at 100 g/ha: ≥ 80%
[3]; in Zea mays
  pest or weed control at 100 g/ha: ≥ 80%
[5]
  pest or weed control at 100 g/ha: ≥ 80%

## Cc1cc(C#N)cc(C(=O)NC2CC2)c1NC(=O)c1cc(Cn2nnnc2C(F)(F)F)nn1-c1ccccc1Cl [Example 525]
[2]; [10]
  chromatographic logP: 2.95
[7]; [11]
  pest or weed control at 100 g/ha: ≥ 80%
[3]; [9]
  pest or weed control at 100 g/ha: ≥ 80%
[5]
  pest or weed control at 100 g/ha: ≥ 80%

## Cc1cc(C#N)cc(C(=O)NCC2CC2)c1NC(=O)c1cc(Cn2nnnc2C(F)(F)F)nn1-c1ccccc1Cl [Example 526]
[2]; [10]
  chromatographic logP: 3.25
[7]; [11]
  pest or weed control at 100 g/ha: ≥ 80%
[3]; [9]
  pest or weed control at 100 g/ha: ≥ 80%
[5]
  pest or weed control at 100 g/ha: ≥ 80%

## Cc1cc(C#N)cc(C(=O)NC(C)(C)C)c1NC(=O)c1cc(Cn2nnc(C(F)(F)F)n2)nn1-c1c(F)cccc1Cl [Example 528]
[2]; [10]
  chromatographic logP: 3.88
[7]; [11]
  pest or weed control at 100 g/ha: ≥ 80%
[3]; [9]
  pest or weed control at 100 g/ha: ≥ 80%
[5]
  pest or weed control at 100 g/ha: ≥ 80%

## CNC(=O)c1cc(C#N)cc(C)c1NC(=O)c1cc(Cn2nnc(C(F)(F)F)n2)nn1-c1c(F)cccc1Cl [Example 529]
[2]; [10]
  chromatographic logP: 3.13
[7]; [11]
  pest or weed control at 100 g/ha: ≥ 80%
[3]; [9]
  pest or weed control at 100 g/ha: ≥ 80%
[5]
  pest or weed control at 100 g/ha: ≥ 80%

## CCC(C)NC(=O)c1cc(C#N)cc(C)c1NC(=O)c1cc(Cn2nnc(C(F)(F)F)n2)nn1-c1ccccc1Cl (stereo not drawn) [Example 530]
[2]; [10]
  chromatographic logP: 3.81
[7]; [11]
  pest or weed control at 100 g/ha: ≥ 80%
[3]; [9]
  pest or weed control at 100 g/ha: ≥ 80%
[5]
  pest or weed control at 100 g/ha: ≥ 80%

## CCNC(=O)c1cc(C#N)cc(C)c1NC(=O)c1cc(Cn2nnc(C(F)(F)C(F)(F)F)n2)nn1-c1ccccc1Cl [Example 532]
[2]; [10]
  chromatographic logP: 3.87
[7]; [11]
  pest or weed control at 100 g/ha: ≥ 80%
[3]; [9]
  pest or weed control at 100 g/ha: ≥ 80%
[5]
  pest or weed control at 100 g/ha: ≥ 80%

## Cc1cc(C#N)cc(C(=O)NCC(C)C)c1NC(=O)c1cc(Cn2nnc(C(F)(F)F)n2)nn1-c1ccccc1Cl [Example 533]
[2]; [10]
  chromatographic logP: 3.84
[7]; [11]
  pest or weed control at 100 g/ha: ≥ 80%
[3]; [9]
  pest or weed control at 100 g/ha: ≥ 80%
[5]
  pest or weed control at 100 g/ha: ≥ 80%

## Cc1cc(C#N)cc(C(=O)NCC#N)c1NC(=O)c1cc(Cn2nnc(C(F)(F)F)n2)nn1-c1ccccc1Cl [Example 540]
[2]; [10]
  chromatographic logP: 2.97
[7]; [11]
  pest or weed control at 100 g/ha: ≥ 80%
[3]; [9]
  pest or weed control at 100 g/ha: ≥ 80%
[5]
  pest or weed control at 100 g/ha: ≥ 80%

## CNC(=O)c1cc(C#N)cc(C)c1NC(=O)c1cc(C(C)n2nnc(C(F)(F)F)n2)nn1-c1ncccc1Cl (stereo not drawn) [Example 542]
[2]; log P
  chromatographic logP: 2.86
[7]; in Brassica rapa
  pest or weed control at 100 g/ha: ≥ 80%
[3]; in Zea mays
  pest or weed control at 100 g/ha: ≥ 80%
[5]
  pest or weed control at 100 g/ha: ≥ 80%

## CNC(=O)c1cc(Cl)cc(C)c1NC(=O)c1cc(C(C)n2nnc(C(F)(F)F)n2)nn1-c1ncccc1Cl (stereo not drawn) [Example 543]
[2]; log P
  chromatographic logP: 3.26
[7]; in Brassica rapa
  pest or weed control at 100 g/ha: ≥ 80%
[3]; in Zea mays
  pest or weed control at 100 g/ha: ≥ 80%
[5]
  pest or weed control at 100 g/ha: ≥ 80%

## Cc1cc(Cl)cc(C(=O)NC(C)(C)C)c1NC(=O)c1cc(Cn2nnc(C(F)(F)F)n2)nn1-c1ncccc1Cl [Example 544]
[2]; log P
  chromatographic logP: 3.85
[7]; in Brassica rapa
  pest or weed control at 100 g/ha: ≥ 80%
[3]; in Zea mays
  pest or weed control at 100 g/ha: ≥ 80%
[5]
  pest or weed control at 100 g/ha: ≥ 80%
